Columns and labels:
[1] = accelerated stability study, related substances by HPLC (Eur. Ph. 07/2010:2420); assay type: physicochemical
Description: The tiotropium bromide accelerated stability studies were performed storing the drug substance, prepared as described in the previous examples, at 40±2° C./75±5% RH. Stability was evaluated in dark glass vial with screw cap. The frequency of the analyses performed has included five test points: 0, 7 days, 1, 3, and 6 months. Related substances amount of tiotropium bromide was measured by HPLC, following the Eur. Ph. procedure (07/2010:2420).

[2] = stability at 25° C./60% relative humidity (impurity profile and X-ray spectrum); assay type: physicochemical

With `C[N+]1(C)C2CC(OC(=O)C(O)(c3cccs3)c3cccs3)CC1[C@@H]1O[C@H]21.[Br-]` (some centres unmarked) [Tiotropium Bromide] the “impurity profile and X-ray spectrum on storage” value ([1]; 40° C./75% RH) was “did not change for at least six months”, the “Related substances: Impurity A, RRT 0.40-0.47” value ([1]; 40±2° C./75±5% RH, 7 days) was 0.02 and the “Related substances: Impurity B, RRT 0.79-0.84” value (“Related substances: Impurity B” for short) ([1]; 40±2° C./75±5% RH, 7 days) was 0.04. For the same compound, the “Related substances: unnamed, RRT 0.98” value ([1]; 40±2° C./75±5% RH, 7 days) was 0.03, the “Related substances: unnamed, RRT 1.21-1.35” value ([1]; 40±2° C./75±5% RH, 7 days) was 0.01 and the “Related substances: unnamed, RRT 1.22-1.37” value ([1]; 40±2° C./75±5% RH, 7 days) was 0.02. For the same compound, the Sum of impurities ([1]; 40±2° C./75±5% RH, 7 days) was 0.12, the “Tiotropium Bromide, RRT 1.00 (HPLC)” value ([1]; 40±2° C./75±5% RH, 7 days) was 99.88 and the “Related substances: Impurity A, RRT 0.40-0.47” value ([1]; 40±2° C./75±5% RH, 30 d) was 0.02. For the same compound, the “Related substances: Impurity B” value ([1]; 40±2° C./75±5% RH, 30 d) was 0.04, the “Related substances: unnamed, RRT 0.98” value ([1]; 40±2° C./75±5% RH, 30 d) was 0.03 and the “Related substances: unnamed, RRT 1.22-1.37” value ([1]; 40±2° C./75±5% RH, 30 d) was 0.03. For the same compound, the Sum of impurities ([1]; 40±2° C./75±5% RH, 30 d) was 0.12, the “Tiotropium Bromide, RRT 1.00 (HPLC)” value ([1]; 40±2° C./75±5% RH, 30 d) was 99.88 and the “Related substances: Impurity A, RRT 0.40-0.47” value ([1]; 40±2° C./75±5% RH, 90 d) was 0.02. The “Related substances: Impurity B” value ([1]; 40±2° C./75±5% RH, 90 d) was 0.04, the “Related substances: Impurity E, RRT 1.73” value ([1]; 40±2° C./75±5% RH, 90 d) was 0.01 and the “Related substances: unnamed, RRT 0.39” value ([1]; 40±2° C./75±5% RH, 90 d) was 0.02. The “Related substances: unnamed, RRT 0.98” value ([1]; 40±2° C./75±5% RH, 90 d) was 0.02, the “Related substances: unnamed, RRT 1.21-1.35” value ([1]; 40±2° C./75±5% RH, 90 d) was 0.02 and the “Related substances: unnamed, RRT 1.22-1.37” value ([1]; 40±2° C./75±5% RH, 90 d) was 0.03. For the same compound, the “Related substances: unnamed, RRT 1.50-1.53” value ([1]; 40±2° C./75±5% RH, 90 d) was 0.01, the Sum of impurities ([1]; 40±2° C./75±5% RH, 90 d) was 0.17 and the “Tiotropium Bromide, RRT 1.00 (HPLC)” value ([1]; 40±2° C./75±5% RH, 90 d) was 99.83. For the same compound, the “Related substances: Impurity A, RRT 0.40-0.47” value ([1]; 40±2° C./75±5% RH, 180 d) was 0.02, the “Related substances: Impurity B” value ([1]; 40±2° C./75±5% RH, 180 d) was 0.04 and the “Related substances: unnamed, RRT 0.98” value ([1]; 40±2° C./75±5% RH, 180 d) was 0.02. For the same compound, the “Related substances: unnamed, RRT 1.21-1.35” value ([1]; 40±2° C./75±5% RH, 180 d) was 0.02, the “Related substances: unnamed, RRT 1.22-1.37” value ([1]; 40±2° C./75±5% RH, 180 d) was 0.03 and the “Related substances: unnamed, RRT 1.50-1.53” value ([1]; 40±2° C./75±5% RH, 180 d) was 0.01. For the same compound, the Sum of impurities ([1]; 40±2° C./75±5% RH, 180 d) was 0.14, the “Tiotropium Bromide, RRT 1.00 (HPLC)” value ([1]; 40±2° C./75±5% RH, 180 d) was 99.86 and the “Related substances: Impurity A, RRT 0.40-0.47” value ([1]; 40±2° C./75±5% RH, Time 0) was 0.02. For the same compound, the “Related substances: Impurity B” value ([1]; 40±2° C./75±5% RH, Time 0) was 0.04, the “Related substances: unnamed, RRT 0.98” value ([1]; 40±2° C./75±5% RH, Time 0) was 0.03 and the “Related substances: unnamed, RRT 1.21-1.35” value ([1]; 40±2° C./75±5% RH, Time 0) was 0.01. The “Related substances: unnamed, RRT 1.22-1.37” value ([1]; 40±2° C./75±5% RH, Time 0) was 0.02, the “Related substances: unnamed, RRT 1.50-1.53” value ([1]; 40±2° C./75±5% RH, Time 0) was 0.01 and the Sum of impurities ([1]; 40±2° C./75±5% RH, Time 0) was 0.13. The “Tiotropium Bromide, RRT 1.00 (HPLC)” value ([1]; 40±2° C./75±5% RH, Time 0) was 99.87 and the “impurity profile and X-ray spectrum on storage” value [2] was “did not change for at least six months”.
